Data published in the supplement of paper PMC10307832.

What was measured:
Assay in all cases: relative viability (nuclei count vs DMSO), 5 days (fraction); higher = more cells survive
[1] = compound: CN(C)C[C@@H]1CCn2cc(c3ccccc32)C2=C(C(=O)NC2=O)c2cn(c3ccccc23)CCO1 [Ruboxistaurin] + CC(C)C[C@H](NC(=O)[C@H](Cc1ccccc1)NC(=O)c1cnccn1)B(O)O [Bortezomib] (partner 0.002 µM)
How it was run: (§1)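 After 5 days of treatment, lung cancer cells in 1536-well plates were fixed and stained in a single step (final 0.05% Triton X-100, 1% formaldehyde, 1 ug/ml Hoechst) and their nuclei counted on 4× images. Treatment had been applied by pin tool the day after seeding as one drug alone or as a fixed anchor-drug dose with five library-drug doses (not always all listed) in √10 steps. Relative viability is the nuclei count of treated wells divided by that of vehicle wells, and values are medians of duplicate plates.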

[2] = compound: CN(C)C[C@@H]1CCn2cc(c3ccccc32)C2=C(C(=O)NC2=O)c2cn(c3ccccc23)CCO1 [Ruboxistaurin] + C[C@]1(O)C[C@@H](c2nc(-c3ccc4ccc(-c5ccccc5)nc4c3)c3c(N)nccn32)C1 [Linsitinib] (partner 1 µM)
How it was run: as §1

[3] = compound: CN(C)C[C@@H]1CCn2cc(c3ccccc32)C2=C(C(=O)NC2=O)c2cn(c3ccccc23)CCO1 [Ruboxistaurin] + N=C(N)NC(=N)NCCc1ccccc1 [Phenformin] (partner 250 µM)
How it was run: as §1

Ruboxistaurin + AZD7762 = compound: CN(C)C[C@@H]1CCn2cc(c3ccccc32)C2=C(C(=O)NC2=O)c2cn(c3ccccc23)CCO1 [Ruboxistaurin] + NC(=O)Nc1cc(-c2cccc(F)c2)sc1C(=O)N[C@H]1CCCNC1 [AZD7762] (partner 0.2 µM)
How it was run: as §1

[4] = compound: CN(C)C[C@@H]1CCn2cc(c3ccccc32)C2=C(C(=O)NC2=O)c2cn(c3ccccc23)CCO1 [Ruboxistaurin] + Nc1ncn([C@H]2C[C@H](O)[C@@H](CO)O2)c(=O)n1 [Decitabine] (partner 2 µM)
How it was run: as §1

Cell Line	relative viability ([1]; first compound 0.08 µM)	relative viability ([1]; first compound 0.8 µM)	relative viability ([1]; first compound 2.53 µM)	relative viability ([1]; first compound 8 µM)	relative viability ([2]; first compound 0.08 µM)	relative viability ([2]; first compound 0.8 µM)	relative viability ([2]; first compound 2.53 µM)	relative viability ([2]; first compound 8 µM)	relative viability ([3]; first compound 0.08 µM)	relative viability ([3]; first compound 0.8 µM)	relative viability ([3]; first compound 2.53 µM)	relative viability ([3]; first compound 8 µM)	relative viability (Ruboxistaurin + AZD7762; first compound 0.08 µM)	relative viability (Ruboxistaurin + AZD7762; first compound 0.8 µM)	relative viability (Ruboxistaurin + AZD7762; first compound 2.53 µM)	relative viability (Ruboxistaurin + AZD7762; first compound 8 µM)	relative viability ([4]; first compound 0.08 µM)	relative viability ([4]; first compound 0.8 µM)	relative viability ([4]; first compound 2.53 µM)	relative viability ([4]; first compound 8 µM)
201T	1.12	1.08	1.12	1.15	1.03	0.874	1.06	0.891	0.49	0.433	0.449	0.426	0.539	0.549	0.581	0.641	0.858	0.834	0.824	0.914
A549					0.685	0.562	0.61	0.458	0.199	0.162	0.221	0.175					0.264	0.217	0.307	0.305
A-427	1.01	0.952	0.97	0.731	1.1	1.08	0.992	0.925	0.398	0.314	0.327	0.273	0.849	0.639	0.709	0.516	0.605	0.527	0.564	0.548
ABC-1	0.357	0.339	0.308	0.261	0.767	0.865	0.969	0.625	0.252	0.245	0.182	0.233	0.662	0.894	0.771	0.598	1.19	0.696	1.26	0.942
BEN	0.903	0.78	0.702	0.677	1.04	0.883	0.9	0.721	0.26	0.292	0.248	0.245	0.833	0.668	0.639	0.509	0.815	0.698	0.724	0.549
CAL-12T	1.12	0.981	1.06	1.11	0.884	0.679	0.897	0.927	0.597	0.585	0.568	0.563	0.691	0.661	0.748	0.65				
COR-L23	1.1	0.797	0.968	1.35	0.928	0.815	1.03	0.851	0.408	0.41	0.519	0.493					0.427	0.384	0.467	0.487
COR-L 105	0.906	0.651	0.823	0.685	1.17	0.75	0.78	0.696	0.599	0.436	0.446	0.4					0.618	0.595	0.681	0.611
ChaGo-K-1	1.27	1.06	1.05	0.939					0.47	0.525	0.532	0.412	0.86	0.856	0.908	0.911	0.592	0.487	0.53	0.535
EKVX	1.15	0.998	1.18	0.946	1.08	0.948	0.971	0.931	0.249	0.221	0.234	0.26	0.607	0.623	0.649	0.656	0.334	0.246	0.34	0.426
EMC-BAC-2	1.1	0.99	1.04	0.962	0.885	0.775	0.773	0.739	0.601	0.469	0.505	0.438	1.12	1.05	1.11	0.891	0.968	0.949	0.979	0.842
EPLC-272H	1.04	0.691	1.01	1.01	1.28	1.09	1.2	1.16	0.338	0.301	0.297	0.349	0.263	0.108	0.276	0.0372	0.473	0.289	0.354	0.341
H3255	0.854	0.844	0.869	0.732	1.09	0.953	0.943	0.931	0.354	0.326	0.345	0.352	1.05	0.984	0.924	0.97	0.608	0.54	0.603	0.538
HARA	1.22	1.04	1.15	0.465	1.15	0.922	1.08	0.657	0.493	0.404	0.535	0.475	0.346	0.525	0.339	0.336	0.502	0.496	0.567	0.592
HCC-15	1.09	1.01	1.14	1.2	0.841	0.834	0.852	0.776	0.513	0.46	0.486	0.504	1.25	1.2	1.13	1.25	0.699	0.576	0.666	0.685
HCC-44	0.956	0.868	0.983	0.969	0.643	0.645	0.674	0.635	0.204	0.193	0.185	0.19	1.02	1.01	1.02	1.07	0.974	0.882	1.01	1.02
HCC-78	0.711	0.427	0.618	0.397	0.531	0.501	0.455	0.482	0.691	0.906	0.779	0.739	0.735	0.549	0.715	0.536	0.636	0.663	0.756	0.635
HCC-366	1.05	1.05	1.05	0.986	0.691	0.526	0.68	0.33	0.666	0.572	0.629	0.664	0.187	0.284	0.27	0.178	0.361	0.351	0.325	0.317
HCC-827	1.01	1.01	1.06	1.14	0.933	0.962	0.951	1	0.454	0.397	0.427	0.384	0.26	0.199	0.239	0.201	0.349	0.344	0.376	0.319

Cell Line	relative viability ([1]; first compound 0.08 µM)	relative viability ([1]; first compound 0.8 µM)	relative viability ([1]; first compound 2.53 µM)	relative viability ([1]; first compound 8 µM)	relative viability ([2]; first compound 0.08 µM)	relative viability ([2]; first compound 0.8 µM)	relative viability ([2]; first compound 2.53 µM)	relative viability ([2]; first compound 8 µM)	relative viability ([3]; first compound 0.08 µM)	relative viability ([3]; first compound 0.8 µM)	relative viability ([3]; first compound 2.53 µM)	relative viability ([3]; first compound 8 µM)	relative viability (Ruboxistaurin + AZD7762; first compound 0.08 µM)	relative viability (Ruboxistaurin + AZD7762; first compound 0.8 µM)	relative viability (Ruboxistaurin + AZD7762; first compound 2.53 µM)	relative viability (Ruboxistaurin + AZD7762; first compound 8 µM)	relative viability ([4]; first compound 0.08 µM)	relative viability ([4]; first compound 0.8 µM)	relative viability ([4]; first compound 2.53 µM)	relative viability ([4]; first compound 8 µM)
IA-LM	0.891	0.669	1.1	0.98	0.734	0.277	0.6	0.685												
LK-2					0.493	0.589	0.717	0.261	0.476	0.38	0.379	0.225	0.402	0.448	0.377	0.19	0.356	0.315	0.402	0.238
NCI-H358					0.835	0.59	0.63	0.367	0.32	0.255	0.293	0.263	0.593	0.48	0.519	0.49	0.227	0.205	0.246	0.256
NCI-H520	0.856	0.66	0.806	0.423	0.991	0.998	0.985	1.12	0.766	0.54	0.599	0.393					0.535	0.477	0.544	0.612
NCI-H522									0.675	0.605	0.703	0.622	0.987	0.804	0.833	0.81	0.753	0.671	0.667	0.658
NCI-H661	0.887	0.664	0.883	0.88	0.809	0.538	0.718	0.545	0.253	0.268	0.297	0.29					0.563	0.555	0.578	0.61
NCI-H1395					1.22	1.02	1.26	1.08	0.502	0.415	0.525	0.498	0.41	0.411	0.419	0.418	0.666	0.667	0.781	0.686
NCI-H1650	0.216	0.192	0.212	0.195					0.542	0.387	0.4	0.287					0.387	0.524	0.501	0.468
NCI-H1793					1.07	0.818	0.985	1.14	0.412	0.321	0.422	0.408	0.654		0.476	0.339	0.461		0.614	0.549
NCI-H1944					1.23	1.1	1.12	1.01	0.213	0.183	0.179	0.186	0.477	0.544	0.524	0.492	0.439	0.403	0.405	0.46
NCI-H2009	1.04	0.941	1.14	1.41	1.18	1.14	1.18	1.23	0.579	0.442	0.536	0.502					0.39	0.371	0.411	0.406
NCI-H2023	1.1	0.898	1.06	0.819	0.721	0.53	0.616	0.492	0.448	0.388	0.445	0.383					0.214	0.214	0.254	0.256
NCI-H2170									0.443	0.429	0.458	0.474	0.901	0.783	0.95	0.964	0.464	0.472	0.509	0.458
NCI-H2228	1.33	0.708	1.08	0.941	0.847	0.481	0.681	0.751	0.345	0.256	0.419	0.269								
SK-LU-1	1.37	1.03	1.22	1.07	1.14	0.975	0.991	0.854	0.61	0.495	0.628	0.526					0.744	0.573	0.668	0.751
SK-MES-1					1.08	1	1.02	0.996	0.678	0.607	0.658	0.639					0.382	0.363	0.389	0.427
SW 900									0.71	0.597	0.564	0.55	0.625	0.501	1.09	0.568	0.4	0.395	0.5	0.566
SW 1573	0.892	0.973	0.983	1.05	0.879	0.839	0.799	0.772	0.408	0.141	0.445	0.282					0.454	0.445	0.58	0.487
UMC-11	0.725	0.667	0.691	0.564	0.976	0.884	0.987	0.642	0.321	0.33	0.315	0.354					0.672	0.51	0.676	0.61
